{"source": "ChEMBL document CHEMBL1137656", "about": "“Effects of serum on in vitro susceptibility testing of echinocandins” (Antimicrob Agents Chemother, 2007)", "key": {"Pichia kudriavzevii": {"test_system": "Pichia kudriavzevii", "assay": "Ratio of MIC50 for Candida krusei ATCC 6258 in presence of 50% human serum to MIC50 for Candida krusei ATCC 6258 in presence of RPMI 1640 medium", "type": "functional"}, "Candida parapsilosis [1]": {"test_system": "Candida parapsilosis", "assay": "Ratio of MIC50 for Candida parapsilosis ATCC 22019 in presence of 50% human serum to MIC50 for Candida parapsilosis ATCC 22019 in presence of RPMI 1640 medium", "type": "functional"}, "Aspergillus flavus": {"test_system": "Aspergillus flavus", "assay": "Antifungal activity against Aspergillus flavus isolate 0001-033 after 24 hrs by CLSI M38-A broth microdilution method in presence of 50% human serum", "type": "functional", "conditions": "isolate 0001-033, 24 h"}, "Candida tropicalis": {"test_system": "Candida tropicalis", "assay": "Antifungal activity against Candida tropicalis isolate 0022-021 after 24 hrs by CLSI M27-A2 broth microdilution method in presence of 50% human serum", "type": "functional", "conditions": "isolate 0022-021, 24 h"}, "Aspergillus fumigatus": {"test_system": "Aspergillus fumigatus", "assay": "Antifungal activity against Aspergillus fumigatus isolate 0002-021 after 24 hrs by CLSI M38-A broth microdilution method in presence of RPMI 1640 medium", "type": "functional", "conditions": "isolate 0002-021, 24 h"}, "Candida parapsilosis [2]": {"test_system": "Candida parapsilosis", "assay": "Antifungal activity against Candida parapsilosis ATCC 22019 after 24 hrs by CLSI M27-A2 broth microdilution method in presence of RPMI 1640 medium", "type": "functional", "conditions": "Lodderomyces parapsilosis, ATCC 22019, 24 h"}, "Clavispora lusitaniae": {"test_system": "Clavispora lusitaniae", "assay": "Antifungal activity against Candida lusitaniae isolate 0015-049 after 24 hrs by CLSI M27-A2 broth microdilution method in presence of RPMI 1640 medium", "type": "functional", "conditions": "isolate 0015-049, 24 h"}, "[3]": {"assay": "Protein binding in mouse serum at 1 to 1000 ug/mL by scintillation counting", "type": "ADME, cell-free", "conditions": "read-out: PB (converted)"}, "[4]": {"assay": "Protein binding in human serum at 1 to 1000 ug/mL by scintillation counting", "type": "ADME, cell-free", "conditions": "read-out: PB (converted)"}}, "note": "Numbered stars: 1 amine (or outer) side, 2 acyl side, 3 side chain; on linkers, the order of the positions; unused ones are H or OH. Bridge positions count the residues as written; N and C are the ends. Square brackets hold non-standard residues; d marks the D form. Peptide text beside a SMILES is read from it. * marks the point of attachment. hTyr(3S-OH,4S-OH,3'-OSO3H) = N[C@H](C(=O)O)[C@H](O)[C@@H](O)c1ccc(O)c(OS(=O)(=O)O)c1; pTerphenylCO(4''-OnC5H11) = CCCCCOc1ccc(-c2ccc(-c3ccc(C(=O)*)cc3)cc2)cc1; Orn(4R-OH,5R-OH) = O=C([C@H](C[C@@H](O)[C@@H](O)N[*:3])N[*:1])[*:2]; hTyr(3S-OH,4S-OH) = N[C@H](C(=O)O)[C@H](O)[C@@H](O)c1ccc(O)cc1; Pro(3S-OH,4S-Me) = C[C@H]1CN[C@H](C(=O)O)[C@H]1O; X1 = CCCCCOc1ccc(-c2cc(-c3ccc(C(=O)*)cc3)no2)cc1; Gln(3R-OH) = NC(=O)C[C@@H](O)[C@H](N)C(=O)O; Hyp = O=C(O)[C@@H]1C[C@@H](O)CN1"}
{"compound": "CCCCCOc1ccc(-c2ccc(-c3ccc(C(=O)N[C@H]4C[C@@H](O)[C@@H](O)NC(=O)[C@@H]5[C@@H](O)[C@@H](C)CN5C(=O)[C@H]([C@@H](C)O)NC(=O)[C@H]([C@H](O)[C@@H](O)c5ccc(O)cc5)NC(=O)[C@@H]5C[C@@H](O)CN5C(=O)[C@H]([C@@H](C)O)NC4=O)cc3)cc2)cc1", "note": "[ANIDULAFUNGIN] ({pTerphenylCO(4''-OnC5H11)}-[Orn(4R-OH,5R-OH)]T[Hyp][hTyr(3S-OH,4S-OH)]T[Pro(3S-OH,4S-Me)]; lactam 1-C)", "values": [{"measurement": "Ratio", "setting": "Pichia kudriavzevii", "result": 16}, {"measurement": "Ratio", "setting": "Candida parapsilosis [1]", "result": 128}, {"measurement": "MIC50", "setting": "Aspergillus flavus", "result": 128, "unit": "µg/mL"}, {"measurement": "MIC50", "setting": "Candida tropicalis", "result": 2, "unit": "µg/mL"}, {"measurement": "MIC50", "setting": "Aspergillus fumigatus", "result": 0.002, "unit": "µg/mL"}, {"measurement": "MIC50", "setting": "Candida parapsilosis [2]", "result": 0.5, "unit": "µg/mL"}, {"measurement": "MIC50", "setting": "Clavispora lusitaniae", "result": 0.125, "unit": "µg/mL"}]}
{"compound": "CC[C@H](C)C[C@H](C)CCCCCCCCC(=O)N[C@H]1C[C@@H](O)[C@@H](NCCN)NC(=O)[C@@H]2[C@@H](O)CCN2C(=O)[C@H]([C@H](O)CCN)NC(=O)[C@H]([C@H](O)[C@@H](O)c2ccc(O)cc2)NC(=O)[C@@H]2C[C@@H](O)CN2C(=O)[C@H]([C@@H](C)O)NC1=O", "note": "[CASPOFUNGIN]", "values": [{"measurement": "Ratio", "setting": "Pichia kudriavzevii", "result": 8}, {"measurement": "Ratio", "setting": "Candida parapsilosis [1]", "result": 16}, {"measurement": "fraction unbound", "setting": "[3]", "result": 0.04}, {"measurement": "MIC50", "setting": "Aspergillus flavus", "result": 128, "unit": "µg/mL"}, {"measurement": "MIC50", "setting": "Candida tropicalis", "result": 0.5, "unit": "µg/mL"}, {"measurement": "MIC50", "setting": "Aspergillus fumigatus", "result": 1, "unit": "µg/mL"}, {"measurement": "fraction unbound", "setting": "[4]", "result": 0.04}, {"measurement": "MIC50", "setting": "Candida parapsilosis [2]", "result": 0.5, "unit": "µg/mL"}, {"measurement": "MIC50", "setting": "Clavispora lusitaniae", "result": 0.5, "unit": "µg/mL"}]}
{"compound": "CCCCCOc1ccc(-c2cc(-c3ccc(C(=O)N[C@H]4C[C@@H](O)[C@@H](O)NC(=O)[C@@H]5[C@@H](O)[C@@H](C)CN5C(=O)[C@H]([C@H](O)CC(N)=O)NC(=O)[C@H]([C@H](O)[C@@H](O)c5ccc(O)c(OS(=O)(=O)O)c5)NC(=O)[C@@H]5C[C@@H](O)CN5C(=O)[C@H]([C@@H](C)O)NC4=O)cc3)no2)cc1", "note": "[MICAFUNGIN] (X1-[Orn(4R-OH,5R-OH)]T[Hyp][hTyr(3S-OH,4S-OH,3'-OSO3H)][Gln(3R-OH)][Pro(3S-OH,4S-Me)]; lactam 1-C)", "values": [{"measurement": "Ratio", "setting": "Pichia kudriavzevii", "result": 128}, {"measurement": "Ratio", "setting": "Candida parapsilosis [1]", "result": 64}, {"measurement": "MIC50", "setting": "Aspergillus flavus", "result": 128, "unit": "µg/mL"}, {"measurement": "MIC50", "setting": "Candida tropicalis", "result": 2, "unit": "µg/mL"}, {"measurement": "MIC50", "setting": "Aspergillus fumigatus", "result": 0.001, "unit": "µg/mL"}, {"measurement": "MIC50", "setting": "Candida parapsilosis [2]", "result": 0.5, "unit": "µg/mL"}, {"measurement": "MIC50", "setting": "Clavispora lusitaniae", "result": 0.0156, "unit": "µg/mL"}]}
